According to US4668663A, “Renin inhibitors containing homophe^8” (Merck & Co., Inc., priority 1984, dated 1987):
Numbered stars: 1 amine (or outer) side, 2 acyl side, 3 side chain; on linkers, the order of the positions; unused ones are H or OH. Square brackets hold non-standard residues; d marks the D form. Peptide text beside a SMILES is read from it. * marks the point of attachment. ACHPA = O=C(C[C@H](O)[C@H](CC1CCCCC1)N[*:1])[*:2]; Sta = CC(C)C[C@H](N)[C@@H](O)CC(=O)O; hhPhe = N[C@@H](CCCc1ccccc1)C(=O)O; hPhe = N[C@@H](CCc1ccccc1)C(=O)O; Isovaleryl = CC(C)CC(=O)*; Boc = CC(C)(C)OC(=O)*

Columns and labels:
[1] = target: T1, human kidney renin (Homo sapiens, UniProt P00797); assay: Inhibition of purified human kidney renin; format: biochemical; details: dissociation constant of the inhibited enzyme-inhibitor complex
T1 construct: human kidney renin purified as described in Bangham; from tissue; host or cells: human kidney
T1 sequence (P00797 67-406): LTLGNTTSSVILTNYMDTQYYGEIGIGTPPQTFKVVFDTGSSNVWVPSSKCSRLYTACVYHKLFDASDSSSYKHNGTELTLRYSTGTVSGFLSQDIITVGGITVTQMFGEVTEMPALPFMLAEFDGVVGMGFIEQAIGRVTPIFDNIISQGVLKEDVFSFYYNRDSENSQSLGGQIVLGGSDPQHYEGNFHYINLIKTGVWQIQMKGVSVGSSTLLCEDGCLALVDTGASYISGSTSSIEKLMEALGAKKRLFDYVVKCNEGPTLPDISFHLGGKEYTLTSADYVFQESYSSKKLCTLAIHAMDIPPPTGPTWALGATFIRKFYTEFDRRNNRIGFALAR
Protocol: (§1) Assays were carried out in order to determine the inhibitory potency of the peptides of the present invention. One assay measured the inhibition of hog kidney renin, and was in accordance with the procedure described in Rich et al., J. Med. Chem. 23: 27, 1980, except that a pH of 7.3 was used. Another assay measured the inhibition of human kidney renin purified as described in Bangham, D. R., Robertson, I., Robinson, J. I. S., Robinson, C. J., and Tree, M., Clinical Science and Molecular Medicine, 48 (Supp. 2): 136s-159s (1975), and further purified by affinity chromatography on pepstatin-aminohexyl-Sepharase as described in Poe, M., Wu., J. K., Florance, J. R., Radkey, J. A., Bennett, C. D., and Hoogsteen, K., J. Biol. Chem. 258: 2209-2216 (1983). The assay was also in accordance with Poe et al. cited above. Further assays measured human plasma renin and dog plasma renin in accordance with procedures described in Boger et al, Nature, 303: 81-84 (1983).
Results expressed as KI values refer to the dissociation constant of the inhibited enzyme-inhibitor complex. This KI value was obtained as described above. Pepstatin was used as an active control.

[2] = target: T2, dog plasma renin (Canis lupus familiaris, UniProt Q6DYE7); assay: Dog plasma renin assay; format: biochemical; details: read-out: Dog Plasma I50
T2 construct: Further assays measured human plasma renin and dog plasma renin; from tissue; host or cells: dog plasma
T2 sequence (Q6DYE7 66-403): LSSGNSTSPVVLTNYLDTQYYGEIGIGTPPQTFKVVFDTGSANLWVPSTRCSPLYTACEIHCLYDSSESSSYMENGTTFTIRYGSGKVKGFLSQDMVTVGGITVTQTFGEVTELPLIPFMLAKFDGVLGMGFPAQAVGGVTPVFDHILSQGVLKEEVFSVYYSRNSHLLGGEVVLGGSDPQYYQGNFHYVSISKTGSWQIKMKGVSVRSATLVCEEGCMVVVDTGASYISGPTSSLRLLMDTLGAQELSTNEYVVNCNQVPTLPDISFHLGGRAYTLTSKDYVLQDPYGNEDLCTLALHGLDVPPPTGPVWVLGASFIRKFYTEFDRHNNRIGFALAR
Protocol: as §1

[3] = target: T3, human plasma renin (Homo sapiens, UniProt P00797); assay: Human plasma renin assay; format: biochemical; details: read-out: Human Plasma I50
T3 construct: Further assays measured human plasma renin and dog plasma renin; from tissue; host or cells: human plasma
T3 sequence (P00797 67-406): T1 sequence (P00797 67-406)
Protocol: as §1

[4] = system: hog renin; details: after the injection of hog renin into nephrectomized rats (Gross et al.); cited from earlier work

Row | Compound | Ki [1] | IC50 [2] | IC50 [3] | blood pressure in vivo [4]
1 | CC(C)CC(=O)N[C@@H](Cc1c[nH]cn1)C(=O)N1CCC[C@H]1C(=O)N[C@@H](CCc1ccccc1)C(=O)N[C@@H](Cc1c[nH]cn1)C(=O)N[C@@H](CC(C)C)[C@@H](O)CC(=O)N[C@@H](CC(C)C)C(=O)N[C@@H](Cc1ccccc1)C(N)=O [N^α -Isovaleryl-L-Histidyl-L-Prolyl-L-Homophenylalanyl-L-Histidyl-(3S,4S)-Statyl-L-Leucyl-L-Phenylalanyl Amide] (Isovaleryl-HP[hPhe]H[Sta]LF-NH2) | 0.33 nM | 4.5 nM | 0.14 nM | 
2 | CC(C)C[C@H](NC(=O)C[C@H](O)[C@H](CC1CCCCC1)NC(=O)[C@H](Cc1c[nH]cn1)NC(=O)[C@H](CCc1ccccc1)NC(=O)OC(C)(C)C)C(N)=O [BOC--HomoPhe--His--ACHPA--Leu--NH2, BocHPhe--His--ACHPA--Leu--NH2] | 1.17 nM | 100 nM | 3.9 nM | 
3 | pepstatin |  |  |  | reduce blood pressure
4 | COC(=O)[C@H](Cc1ccccc1)NC(=O)[C@H](CC(C)C)NC(=O)C[C@H](O)[C@H](CC1CCCCC1)NC(=O)[C@H](Cc1c[nH]cn1)NC(=O)[C@H](CCc1ccccc1)NC(=O)OC(C)(C)C [BOC--HomoPhe--His--ACHPA--Leu--Phe--OCH3, BocHPhe--His--ACHPA--Leu--Phe--OCH3] (Boc-[hPhe]H[ACHPA]LF-OMe) | 0.39 nM | 16 nM | 4 nM | 

Second part, led by results:

Row | Ki [1] | IC50 [2] | IC50 [3] | Compound | blood pressure in vivo [4]
5 | 0.98 nM |  |  | COC(=O)[C@H](CC(C)C)NC(=O)C[C@H](O)[C@H](CC1CCCCC1)NC(=O)[C@H](Cc1c[nH]cn1)NC(=O)[C@H](CCc1ccccc1)NC(=O)OC(C)(C)C [BOC--HomoPhe--His--ACHPA--Leu--OCH3, BocHPhe--His--ACHPA--Leu--OCH3] | 
6 | 90 nM | 320 nM |  | CC(C)CC(=O)N[C@@H](Cc1c[nH]cn1)C(=O)N1CCC[C@H]1C(=O)N[C@@H](CCCc1ccccc1)C(=O)N[C@@H](Cc1c[nH]cn1)C(=O)N[C@@H](CC(C)C)[C@@H](O)CC(=O)N[C@@H](CC(C)C)C(=O)N[C@@H](Cc1ccccc1)C(N)=O [N^α -Isovaleryl-L-Histidyl-L-Prolyl-L-Bishomophenylalanyl-L-Histidyl-(3S,4S)-Statyl-L-Leucyl-L-Phenylalanyl Amide] (Isovaleryl-HP[hhPhe]H[Sta]LF-NH2) | 
